Test results taken from patent US20250179032A1, “HETEROCYCLIC INHIBITORS OF GLUT9 FOR TREATMENT OF DISEASE” (HORIZON THERAPEUTICS IRELAND DAC, priority 2022, published 2025).

These compounds were tested against T1, H. sapiens SLC2A9 variant 2 (GLUT9B) (Homo sapiens, UniProt Q9NRM0) (assay: GLUT9 functional assay: uric acid uptake in HEK293T cells, allantoin formation by MS/MS as proxy of GLUT9B inhibition). Settings: 15 minute assay; HEK293T cells stably expressing GLUT9B and transiently A. oryzae uricase; uric acid 0.3 mM, 37° C.; read-out: 15 min IC50.
T1 sequence (Q9NRM0 1-511 isoform Q9NRM0-2): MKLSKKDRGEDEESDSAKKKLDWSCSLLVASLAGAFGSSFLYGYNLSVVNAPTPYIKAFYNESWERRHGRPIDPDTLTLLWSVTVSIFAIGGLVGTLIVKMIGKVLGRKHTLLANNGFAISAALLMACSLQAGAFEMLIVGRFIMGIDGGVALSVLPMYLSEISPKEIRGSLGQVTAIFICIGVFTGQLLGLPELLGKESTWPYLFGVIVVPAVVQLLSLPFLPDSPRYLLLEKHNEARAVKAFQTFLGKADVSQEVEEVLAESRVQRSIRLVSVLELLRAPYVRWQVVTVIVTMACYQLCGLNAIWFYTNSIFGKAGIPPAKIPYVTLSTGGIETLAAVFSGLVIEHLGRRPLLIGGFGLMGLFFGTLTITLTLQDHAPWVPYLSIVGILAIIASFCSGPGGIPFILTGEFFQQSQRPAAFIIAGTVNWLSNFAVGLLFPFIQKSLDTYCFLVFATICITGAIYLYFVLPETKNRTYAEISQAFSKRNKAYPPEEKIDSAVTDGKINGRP
Format: cell-based
Description: Uric acid stocks (9 mM, Millipore-Sigma, U0881) were generated in 125 mM choline chloride (Millipore-Sigma, C7017) and the concentration was determined at 293 nm using a molar extinction coefficient of 9600 M- ^1 cm- ^1) after collecting the absorbance spectra from 220-350 nm. Allantoin stocks (12 mM Toronto Research Chemicals, A540500) were generated in LCMS grade water (Thermo Scientific, 51140). The concentration of allantoin was determined by qNMR (Michigan State University). HEK293T cells were purchased from ATCC (HEK 293T/17 SF). Hanks buffered saline salts (HBSS) was purchased from Millipore-Sigma (H6648-1L).
SLC2A9 variant 2 was assayed in sodium gluconate buffer was composed of 125 mM sodium gluconate (TCI Chemicals, G0041-500G), 4.8 mM potassium gluconate (TCI Chemicals, G0040-500G), 1.2 mM calcium gluconate (TCI Chemicals, G0037-500G), 1.2 mM potassium phosphate (pH 7.4, Millipore-Sigma, 17835), 1.2 mM MgSO4, Millipore-Sigma, M2773-500G), 25 mM HEPES pH 7.3, (Millipore-Sigma, 54457). The final pH of the buffer was 7.4. Urate 1 was assayed in the same buffer save the pH was made to be 5.5 using 25 mM MES (pH 5.5) buffer vs 25 mM HEPES (pH 7.3) buffer.
Human untagged clone for (untagged)-human solute carrier family 2 member 9 (SLC2A9), transcript variant (SLC2A9/NM_001001290, FIG. 1 and FIG. 2; SEQ ID NOS: 3 and 4) was purchased from Origene (Cat #SC319239). SLC2A9 variant 2 (GLUT9B) gene was amplified by PCR using the following primer to allow for the introduction of EcoR1 and Not1 sites using the primers below.
HEK293T clonal stable cell lines containing the SLC2A9 variant 2 construct in the bicistronic pIRESpuro vector were generated using Viafect™ (Promega E4981) as per the manufactures instructions and puromycin selection (5 μg×mL^−1).
Uric acid uptake was measured in HEK293T cells stably expressing H. sapiens SLC2A9 variant 2 (GLUT9B) and transiently expressing A. oryzae uricase. Thus, decreased allantoin formation was used as a proxy of GLUT9B inhibition. Briefly, clonal cells were plated (53,000 cells/cm^2) in DMEM with 10% FBS. Twenty-four hours later, A. oryzae uricase was transfected, and assay conducted 3 days later across a 12-point curve in buffer (in mM: 125 sodium gluconate, 4.8 potassium gluconate, 1.2 calcium gluconate, 1.2 potassium phosphate, 1.2 magnesium sulfate4, 25 HEPES; pH 7.4) with uric acid at the GLUT9B Km (0.3 mM) for 15 min or for 60 min, at 37° C. Following wash (Hanks, 37° C.), plates were sealed, incubated (5 min, RT) and cells freeze-thawed prior to lysing in water and shaking (30 min RT). Lysates were filtered through PVDF and subjected to MSMS using a 10 mM ammonium acetate-based mobile phase on a porous graphitic carbon column. Allantoin was detected in positive ion mode. Desired analyte concentrations were quantitated by integrating the area under the curve followed by a log-logistic regression model and data compared to a standard curve prepared in a matching HEK293T biological matrix.
Mass spectrometry measurement of allantoin was completed using an Agilent RapidFire 300 coupled to a Sciex API 4000 mass spectrometer. The stationary phase was an Agilent cartridge D (hypercarb). Mobile phase A was 10 mM ammonium acetate. Mobile phase B was 5 mM ammonium acetate, 25% acetonitrile, 25% acetone. Allantoin was detected in positive ion mode with the following compound ID settings: Q1 159, Q3 115.8, DP 57, CE 12.5 Dwell 100 ms. The source settings were CAD 10, CUR 20, GS1 50, GS250 IS/NC: 5000, TEM 650, EP 10, CXP 10 where Q1 and Q3 resolution were set to low.
Data was quantitated using Area under the curve integration was performed with the RapidFire™ Integrator (Agilent Technologies) for the desired analytes. Quantitation was completed using in a using a log-logistic regression model using allantoin in matching HEK293T biological matrix.

Row | IC50 | SMILES
1 | > 2000 nM | CCCCc1cnc(-c2ccc(OC)cc2)c(N2CCN(CC(=O)O)CC2)n1 [Compound 1, 2-(4-(6-Butyl-3-(4-Methoxyphenyl)Pyrazin-2-yl)Piperazin-1-yl)Acetic Acid]
2 | < 500 nM | CCCCc1cnc(-c2ccc(OC)cc2)c(N2CCC(C(=O)O)CC2)n1 [Compound 3, 1-(6-Butyl-3-(4-Methoxyphenyl)Pyrazin-2-yl)Piperidine-4-Carboxylic Acid]
3 | < 500 nM | CCCCc1cnc(-c2ccc(OC)cc2)c(N2CC3C(C2)C3C(=O)O)n1 (centres unmarked) [Compound 4, 3-(6-Butyl-3-(4-Methoxyphenyl)Pyrazin-2-yl)-3-Azabicyclo[3.1.0]Hexane-6-carboxylic acid]
4 | > 2000 nM | CCCCc1cnc(-c2ccc(OCCN(C)C)cc2)c(N2CCC(C(=O)O)CC2)n1 [Compound 6, 1-(6-Butyl-3-(4-(2-(Dimethylamino)Ethoxy)Phenyl)Pyrazin-2-yl)piperidine-4-carboxylic acid]
5 | 500 to 2000 nM | CCCCc1cnc(-c2ccc(S(C)(=O)=O)cc2)c(N2CCC(C(=O)O)CC2)n1 [Compound 7, 1-(6-Butyl-3-(4-(Methylsulfonyl)Phenyl)Pyrazin-2-yl)Piperidine-4-carboxylic acid]
6 | > 2000 nM | CCCCc1cnc(-c2ccc(OC)cc2)c(N2CCC(S(C)(=O)=O)CC2)n1 [Compound 8, 5-Butyl-2-(4-Methoxyphenyl)-3-(4-(Methylsulfonyl)Piperidin-1-yl)pyrazine]
7 | < 500 nM | CCCCc1cnc(-c2ccc(OC)cc2)c(N2CCC(F)(C(=O)O)CC2)n1 [Compound 10, 1-(6-Butyl-3-(4-Methoxyphenyl)Pyrazin-2-yl)-4-Fluoropiperidine-4-carboxylic acid]
8 | < 500 nM | CCCCc1cnc(-c2ccc(OC)cc2)c(N2CCC(C(=O)NS(C)(=O)=O)CC2)n1 [Compound 11, 1-(6-Butyl-3-(4-Methoxyphenyl)Pyrazin-2-yl)-N-(Methylsulfonyl)Piperidine-4-carboxamide]
9 | > 2000 nM | CCCCc1cnc(-c2ccc(OC)cc2)c(N2CCC(C(=O)O)C2)n1 (centres unmarked) [Compound 12, 1-(6-Butyl-3-(4-Methoxyphenyl)Pyrazin-2-yl)Pyrrolidine-3-Carboxylic acid]
10 | < 500 nM | CCCCc1cnc(-c2ccc(OCCOC)cc2)c(N2CCC(C(=O)O)CC2)n1 [Compound 13, 1-(6-Butyl-3-(4-(2-Methoxyethoxy)Phenyl)Pyrazin-2-yl)Piperidine-4-carboxylic acid]
11 | < 500 nM | CCCCc1cnc(-c2ccc(OC)cc2)c(N2CCC(C)(C(=O)O)CC2)n1 [Compound 14, 1-(6-Butyl-3-(4-Methoxyphenyl)Pyrazin-2-yl)-4-Methylpiperidine-4-carboxylic acid]
12 | < 500 nM | CCCCc1cnc(-c2ccc(OC)cc2)c(N2CCC(CC(=O)O)CC2)n1 [Compound 15, 2-(1-(6-Butyl-3-(4-Methoxyphenyl)Pyrazin-2-yl)Piperidin-4-yl)Acetic acid]
13 | < 500 nM | CCCCc1cnc(-c2ccc(OC)cc2)c(N2CCC(c3nn[nH]n3)CC2)n1 [Compound 16, 3-(4-(2H-Tetrazol-5-yl)Piperidin-1-yl)-5-Butyl-2-(4-methoxyphenyl)pyrazine]

More lines, now with the values behind:

Row | SMILES | IC50
14 | CCCCc1cnc(-c2ccc(F)c(OC)c2)c(N2CCC(C(=O)O)CC2)n1 [Compound 2, 1-(6-Butyl-3-(4-Fluoro-3-Methoxyphenyl)Pyrazin-2-yl)Piperidine-4-carboxylic acid] | > 2000 nM
15 | CCCCc1cnc(-c2ccc3[nH]ccc3c2)c(N2CCC(C(=O)O)CC2)n1 [Compound 5, 1-(6-Butyl-3-(1H-Indol-5-yl)Pyrazin-2-yl)Piperidine-4-Carboxylic Acid] | > 2000 nM
16 | CCCCc1cnc(-c2cc(F)c3occc3c2)c(N2CCC(C(=O)O)CC2)n1 [Compound 9, 1-(6-Butyl-3-(7-Fluorobenzofuran-5-yl)Pyrazin-2-yl)Piperidine-4-carboxylic acid] | < 500 nM
17 | CCCCc1cnc(-c2ccc3cc[nH]c3c2)c(N2CCC(C(=O)O)CC2)n1 [Compound 17, 1-(6-Butyl-3-(1H-Indol-6-yl)Pyrazin-2-yl)Piperidine-4-Carboxylic Acid] | 500 to 2000 nM
18 | CCCCc1cnc(-c2ccc(OC)cc2)c(-c2ccc(C(=O)O)nc2)c1 [Compound 18, 5′-butyl-2′-(4-methoxyphenyl)-[3,3′-bipyridine]-6-carboxylic acid] | > 2000 nM
19 | CCCCc1cnc(-c2ccc(OC)cc2)c(-c2csc(C(=O)O)c2)c1 [Compound 19, 4-(5-butyl-2-(4-methoxyphenyl)pyridin-3-yl)thiophene-2-carboxylic acid] | 500 to 2000 nM
20 | CCCCc1cnc(-c2ccc(OC)cc2)c(-c2csc(C(=O)O)n2)c1 [Compound 20, 4-(5-butyl-2-(4-methoxyphenyl)pyridin-3-yl)thiazole-2-carboxylic acid] | > 2000 nM
21 | CCCCc1cnc(-c2ccc(OC)cc2)c(-c2c[nH]c(C(=O)O)c2)c1 [Compound 21, 4-(5-butyl-2-(4-methoxyphenyl)pyridin-3-yl)-1H-pyrrole-2-carboxylic acid] | > 2000 nM
22 | CCCCc1cnc(-c2ccc(OC)cc2)c(-c2coc(C(=O)O)c2)c1 [Compound 22, 4-(5-butyl-2-(4-methoxyphenyl)pyridin-3-yl)furan-2-carboxylic acid] | > 2000 nM
23 | CCCCc1cnc(-c2ccc(OC)cc2)c(-c2cnc(C(=O)O)nc2)c1 [Compound 23, 5-(5-butyl-2-(4-methoxyphenyl)pyridin-3-yl)pyrimidine-2-carboxylic acid] | > 2000 nM

Same assay, conditions: 60 minute assay; HEK293T cells stably expressing GLUT9B and transiently A. oryzae uricase; uric acid 0.3 mM, 37° C.; read-out: 60 min IC50

Row | IC50 | SMILES
24 | < 500 nM | COCCCc1cnc(-c2ccc3occc3c2)c(N2CCC(C(=O)O)CC2C)n1 (racemic) [Compound 180, 1-(3-(benzofuran-5-yl)-6-(3-Methoxypropyl)Pyrazin-2-yl)-2-methylpiperidine-4-carboxylic acid]
25 | < 500 nM | COCCCc1cnc(-c2cc(F)c3occc3c2)c(N2CC[C@@H](C(=O)O)C[C@@H]2C)n1 (single isomer, unassigned) [Compound 183]
26 | < 500 nM | COCCCc1cnc(-c2cc(F)c3occc3c2)c(N2CC[C@H](C(=O)O)C[C@@H]2C)n1 (single isomer, unassigned) [Compound 229]
27 | > 2000 nM | COCCCc1cnc(-c2ccc3occc3c2)c(N2CCC[C@H](C(=O)O)C2)n1 (single isomer, unassigned) [Compound 235]
28 | 500 to 2000 nM | COCCCc1cnc(-c2ccc3occc3c2)c(N2CCC[C@@H](C(=O)O)C2)n1 (single isomer, unassigned) [Compound 236]
29 | < 500 nM | CCCCc1cnc(-c2ccc(OC)cc2)c(N2CCC(C(=O)O)CC2)n1 [Compound 3, 1-(6-Butyl-3-(4-Methoxyphenyl)Pyrazin-2-yl)Piperidine-4-Carboxylic Acid]
